In ChEMBL document CHEMBL4257547, “Chemical modulation of transcription factors” (Medchemcomm, 2018):
Values belong to the molecule of their own block, whether it stands above or below them.

Assays:
[1] = Protein binding in mouse plasma after 4 hrs by rapid equilibrium dialysis method; assay type: ADME, cell-free; conditions: read-out: PPB
[2] = molecular target: Mitogen-activated protein kinase kinase kinase 14 (Homo sapiens, UniProt Q99558); assay: Inhibition of NIK (unknown origin) by HTRF method
[3] = molecular target: Bromodomain-containing protein 4 (Homo sapiens, UniProt O60885); assay: Inhibition of human His-tagged BRD4 expressed in Escherichia coli BL21(DE3)-R3-pRARE2 cells preincubated for 30 mins followed by biotinylated acetyl-histone addition and measured after 30 mins by AlphaScreen method
[4] = Inhibition of [32P]-labeled CREB KID (unknown origin) binding to GST-fused mouse CBP KIX domain preincubated with GST-fused CBP for 15 mins followed by CREB addition and measured after 30 mins by SDS-gel electrophoresis/autoradiographic method; set-up: species or system Homo sapiens
B16-F10 = assay: Cytotoxicity against mouse B16F10 cells assessed as decrease in cell viability after 24 hrs by MTT assay; assay type: functional, cell-based; conditions: B16-F10, 24 h
Homo sapiens = organism: Homo sapiens; assay: Selectivity ratio of IC50 for inhibition of recombinant His6-tagged human Max homodimer/HEX-tagged double-stranded oligonucleotide complex formation to IC50 for inhibition of recombinant His6-tagged bHLH-LZ domain of human Myc/His6-tagged human Max/HEX-tagged double-stranded oligonucleotide complex formation

Sequence of Mitogen-activated protein kinase kinase kinase 14 (Q99558 whole entry): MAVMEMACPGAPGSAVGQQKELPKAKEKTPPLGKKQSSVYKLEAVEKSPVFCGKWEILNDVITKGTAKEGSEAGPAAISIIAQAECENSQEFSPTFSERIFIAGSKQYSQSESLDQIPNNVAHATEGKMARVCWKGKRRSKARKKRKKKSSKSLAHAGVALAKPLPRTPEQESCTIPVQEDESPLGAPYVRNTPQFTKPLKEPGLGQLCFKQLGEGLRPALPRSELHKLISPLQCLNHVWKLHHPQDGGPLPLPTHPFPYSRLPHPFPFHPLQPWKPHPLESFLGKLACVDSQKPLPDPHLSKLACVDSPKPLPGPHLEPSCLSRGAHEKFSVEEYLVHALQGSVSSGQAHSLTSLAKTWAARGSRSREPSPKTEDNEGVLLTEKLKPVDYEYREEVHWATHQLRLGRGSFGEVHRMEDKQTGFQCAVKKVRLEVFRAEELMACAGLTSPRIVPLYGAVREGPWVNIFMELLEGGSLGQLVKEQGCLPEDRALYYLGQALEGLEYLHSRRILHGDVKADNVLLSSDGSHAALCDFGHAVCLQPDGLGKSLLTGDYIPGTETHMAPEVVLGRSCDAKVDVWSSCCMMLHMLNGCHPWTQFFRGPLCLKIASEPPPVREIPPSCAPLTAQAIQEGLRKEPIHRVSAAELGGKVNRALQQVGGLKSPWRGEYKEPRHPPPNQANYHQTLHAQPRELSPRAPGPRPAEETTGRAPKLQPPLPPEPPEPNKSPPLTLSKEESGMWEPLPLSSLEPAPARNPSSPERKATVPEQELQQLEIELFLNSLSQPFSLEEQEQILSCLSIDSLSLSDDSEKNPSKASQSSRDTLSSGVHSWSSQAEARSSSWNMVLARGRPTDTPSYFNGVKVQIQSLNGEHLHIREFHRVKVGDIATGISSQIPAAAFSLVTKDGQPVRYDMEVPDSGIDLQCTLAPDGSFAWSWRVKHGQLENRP

Structure (SMILES): COc1ccc(C2=Nn3c(nnc3-c3cc(-c4ccc(Cl)cc4)n[nH]3)SC2C)cc1 (configuration not stated)
fraction unbound at 4 h [1]: < 0.001

Structure (SMILES): O=C(Nc1ccc(Cl)cc1)c1cc2ccccc2cc1OP(=O)(O)O
IC50 [4]: 90000 nM

Structure (SMILES): CC(C)(O)/C=C/C(=O)[C@@](C)(O)[C@H]1C(O)C[C@@]2(C)[C@@H]3CC=C4[C@@H](C=C(O)C(=O)C4(C)C)[C@]3(C)CC[C@]12C (some centres not stated)
IC50 (B16-F10): 10000 nM

Structure (SMILES): COC(=O)c1ccc(Nc2ccc([N+](=O)[O-])c3nonc23)c(-c2ccc(C)cc2)c1
Ratio IC50 (Homo sapiens): 2

Results, then the molecule that gave them:

Ki [2]: 0.3 nM
Structure (SMILES): C[C@](O)(C#Cc1ccc2ncc(-c3nc(N)ncc3Cl)n2c1)c1nccs1

IC50 [3]: 2 nM
Structure (SMILES): Cc1nnn2c1-c1ccc(-c3cc[nH]n3)cc1C(c1ccc(Cl)cc1)=NC2

IC50 [3]: 6 nM
Structure (SMILES): Cc1nnn2c1-c1ccc(-c3ccc(N)nc3)cc1C(c1ccc(Cl)cc1)=NC2
